These results are taken from PubChem BioAssay (NCI).

Some test systems named below: M14 melanoma; A549 NSCLC; LXFL 529 NSCLC; SW-620 colon; SNB-75 CNS; SN12C renal; UACC-257 melanoma; CCRF-CEM leukemia; PC-3 prostate.
Holding throughout (test): NCI tumour cell line growth inhibition, 48 h

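Exposure lasted 48 hours, with cells grown in 96-well plates and compounds tested at five concentrations. Here, GI50 denotes the concentration required for 50% inhibition of growth. TGI marks complete inhibition of growth.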 Some results are limits rather than exact numbers.

Take `CCCCCCCCCCCc1cc(=O)c2c(O)cccc2o1`: the TGI with M14 melanoma, in the assay on A549 NSCLC, with LXFL 529 NSCLC, with SW-620 colon, with SNB-75 CNS and with SN12C renal was above 100 µM throughout. The TGI was above 100 µM in the assay on UACC-257 melanoma and 83.7 µM with CCRF-CEM leukemia.
On to `CCCCc1n(Cc2ccc3ccccc3n2)cc[n+]1Cc1ccc2ccccc2c1`, for which the GI50 is 0.786 µM in the assay on PC-3 prostate; 0.769 µM in the assay on M14 melanoma; 1.69 µM in the assay with A549 NSCLC; 1.31 µM in the assay with SW-620 colon; 0.289 µM in the assay on SNB-75 CNS; 0.685 µM in the assay with SN12C renal. In addition, the GI50 is 0.438 µM with UACC-257 melanoma and 1.04 µM in the assay on CCRF-CEM leukemia. In addition, the TGI with PC-3 prostate worked out at 2.5 µM; in the assay on M14 melanoma, 2.45 µM; in the assay on A549 NSCLC, 11 µM; in the assay on SW-620 colon, 4.75 µM; with SNB-75 CNS, 1.74 µM; with SN12C renal, 2.21 µM. In addition, the TGI in the assay with UACC-257 melanoma is 1.62 µM; with CCRF-CEM leukemia, 4.61 µM.
Regarding `CCCCCC/C=C\CCCCCCCCCc1cccc(OC)c1O`, the TGI with PC-3 prostate, with M14 melanoma, with A549 NSCLC, in the assay with SW-620 colon, in the assay with SNB-75 CNS and in the assay with SN12C renal was above 100 µM throughout. Besides, the TGI with UACC-257 melanoma and with CCRF-CEM leukemia was above 100 µM in each case.
Regarding `CC(NNC(=S)N1CCN(c2ccccn2)CC1)c1cccc[n+]1[O-]` (configuration not stated), the TGI in the assay on PC-3 prostate, in the assay on M14 melanoma, in the assay on A549 NSCLC, with SW-620 colon, with SNB-75 CNS and in the assay with SN12C renal was above 100 µM each time. Further, the TGI with UACC-257 melanoma was above 100 µM; with CCRF-CEM leukemia it was 20.5 µM.
Turning to `O=C1c2ccccc2-c2c1c1ccc3ccccc3c1n2-c1ccccc1`, the GI50 in the assay with PC-3 prostate is 35.7 µM; in the assay with M14 melanoma, 94.1 µM; in the assay on A549 NSCLC it was 36.5 µM; in the assay with SW-620 colon, 59.5 µM; with SNB-75 CNS, 81.2 µM; with SN12C renal, 20.5 µM. The figures for the GI50 with UACC-257 melanoma and in the assay on CCRF-CEM leukemia were 64.8 µM and above 100 µM, respectively. The TGI with PC-3 prostate is above 100 µM; in the assay with M14 melanoma, above 100 µM; in the assay on A549 NSCLC, 93.5 µM; in the assay with SW-620 colon it was above 100 µM; in the assay with SNB-75 CNS it was above 100 µM; in the assay on SN12C renal it was 50 µM. Besides, the TGI in the assay on UACC-257 melanoma and in the assay with CCRF-CEM leukemia was above 100 µM each time.
Take `COC(=O)C[C@@H]1CC=CC(=O)/C1=C(O)/C=C/c1ccccc1`: the GI50 in the assay on PC-3 prostate was 0.856 µM; in the assay with M14 melanoma it was 0.578 µM; in the assay with A549 NSCLC it was 4.23 µM; in the assay on SW-620 colon, 0.338 µM; in the assay on SNB-75 CNS, 1.05 µM; with SN12C renal it was 0.462 µM. Moreover, the GI50 in the assay with UACC-257 melanoma is 1.34 µM; in the assay on CCRF-CEM leukemia, 0.264 µM. Further, the TGI with PC-3 prostate is 3.76 µM; with M14 melanoma, 1.69 µM; with A549 NSCLC it was 22 µM; with SW-620 colon, 1.33 µM; with SNB-75 CNS, 3.21 µM; in the assay on SN12C renal, 2.99 µM. Also, the TGI with UACC-257 melanoma worked out at 2.86 µM; with CCRF-CEM leukemia, 1.19 µM.
Consider `COc1ccccc1CNC(=O)/C=C/c1ccc(O)c(O)c1`, for which the GI50 in the assay with PC-3 prostate is above 100 µM; with M14 melanoma it was 72.4 µM; in the assay on A549 NSCLC it was 64.3 µM; in the assay on SW-620 colon it was above 100 µM; in the assay on SNB-75 CNS, 86.5 µM; with SN12C renal it was 68.6 µM. Besides, the GI50 in the assay with UACC-257 melanoma was 84.6 µM; in the assay on CCRF-CEM leukemia, 18.2 µM. For the same compound, the TGI in the assay with PC-3 prostate, with M14 melanoma, with A549 NSCLC, with SW-620 colon, with SNB-75 CNS and in the assay with SN12C renal was above 100 µM each time. In addition, the TGI in the assay with UACC-257 melanoma and in the assay with CCRF-CEM leukemia was above 100 µM in each case.
Take `C=CC(=O)N1CCC(CNc2ncnc(N)c2-c2ccc(Oc3ccccc3)cc2)CC1`: the GI50 in the assay with PC-3 prostate was 24.9 µM; in the assay on M14 melanoma, 31.6 µM; with A549 NSCLC it was 34.3 µM; with SW-620 colon, 33.5 µM; with SNB-75 CNS, 13.4 µM; with SN12C renal it was 25.2 µM. For the same compound, the GI50 with UACC-257 melanoma is 38.5 µM; in the assay with CCRF-CEM leukemia, 27.2 µM. For the same compound, the TGI was above 100 µM with PC-3 prostate; above 100 µM in the assay with M14 melanoma; above 100 µM in the assay with A549 NSCLC; above 100 µM with SW-620 colon; 58.9 µM in the assay with SNB-75 CNS; above 100 µM in the assay with SN12C renal. Moreover, the TGI in the assay on UACC-257 melanoma and in the assay with CCRF-CEM leukemia was above 100 µM each time.
On to `O=C(O)c1ccccc1C(=O)Nc1cc2c(cc1Br)-c1ccccc1C2=O`, for which the TGI in the assay on PC-3 prostate, in the assay on M14 melanoma, in the assay with A549 NSCLC, with SW-620 colon, with SNB-75 CNS and with SN12C renal was above 100 µM in each case. The TGI in the assay on UACC-257 melanoma and with CCRF-CEM leukemia was above 100 µM each time.
